Measurements reported in patent publication US20140045823A1 (Neurocrine Biosciences, Inc., priority 2012, published 2014).

Biological target: T1, human GPR119 (Homo sapiens, UniProt Q8TDV5)
T1 construct: expression vector for human GPR119 cDNA (Acc. No. NP_848566); expressed in transfected cells; Min-6/hGPR119
T1 sequence (Q8TDV5 1-335): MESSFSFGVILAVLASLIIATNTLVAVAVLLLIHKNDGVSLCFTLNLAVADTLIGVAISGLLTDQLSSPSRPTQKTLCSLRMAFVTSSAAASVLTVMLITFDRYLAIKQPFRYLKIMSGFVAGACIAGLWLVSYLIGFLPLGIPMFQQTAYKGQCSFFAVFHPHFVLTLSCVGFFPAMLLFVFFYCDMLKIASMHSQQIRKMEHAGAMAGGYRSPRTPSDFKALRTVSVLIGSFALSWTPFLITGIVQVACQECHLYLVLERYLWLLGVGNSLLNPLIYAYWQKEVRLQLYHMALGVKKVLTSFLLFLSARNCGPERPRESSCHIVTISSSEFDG
Assay: AlphaScreen cAMP assay in MIN6 cells stably transfected with human GPR119
Type: cell-based
Conditions: Min-6/hGPR119 cells, 45 min at room temperature
Outline: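 MIN6 cells stably expressing human GPR119, seeded 10000/well and grown 24 h, were exposed to compound in pH 7.4 buffer with 0.5 mM IBMX, 0.1% BSA and 1% DMSO for 45 min at room temperature. Intracellular cAMP then measured by AlphaScreen.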

Row | Compound | EC50 [nM]
1 | CC(C)(C)OC(=O)N1CCC(N(C(=O)c2cnc(-c3ccc(C(=O)NCc4ccncc4)cc3)nc2)C2CC2)CC1 [Example 241, 4-[Cyclopropyl-(2-{4-[(pyridin-4-ylmethyl)-carbamoyl]-phenyl}-pyrimidine-5-carbonyl)-amino]-piperidine-1-carboxylic acid tert-butyl ester] | 245
2 | CC(C)(C)OC(=O)N1CCC(N(C(=O)c2cnc(-c3ccc(C(=O)N4CCCC4CO)cc3)nc2)C2CC2)CC1 (stereo not drawn) [Example 242, 4-(Cyclopropyl-{2-[4-(2-hydroxymethyl-pyrrolidine-1-carbonyl)-phenyl]-pyrimidine-5-carbonyl}-amino)-piperidine-1-carboxylic acid tert-butyl ester] | 593
3 | COCCNC(=O)c1ccc(-c2ncc(C(=O)N(C3CC3)C3CCN(C(=O)OC(C)(C)C)CC3)cn2)cc1 [Example 243, 4-(Cyclopropyl-{2-[4-(2-methoxy-ethylcarbamoyl)-phenyl]-pyrimidine-5-carbonyl}-amino)-piperidine-1-carboxylic acid tert-butyl ester] | 309
4 | CC(C)(C)OC(=O)N1CCC(N(C(=O)c2cnc(-c3ccc(C(=O)NCC4CCCO4)cc3)nc2)C2CC2)CC1 (stereo not drawn) [Example 244, 4-[Cyclopropyl-(2-{4-[(tetrahydro-furan-2-ylmethyl)-carbamoyl]-phenyl)-pyrimidine-5-carbonyl)-amino]-piperidine-1-carboxylic acid tert-buyl ester] | 237
5 | CC(C)(C)OC(=O)N1CCC(N(C(=O)c2cnc(-c3ccc(C(=O)N4CCC[C@@H]4C#N)cc3)nc2)C2CC2)CC1 [Example 245, 4-({2-[4-(2-Cyano-pyrrolidine-1-carbonyl)-phenyl]-pyrimidine-5-carbonyl}-cyclopropyl-amino)-piperidine-1-carboxylic acid tert-butyl ester] | 322
6 | Cc1cnc(CNC(=O)c2ccc(-c3ncc(C(=O)N(C4CC4)C4CCN(C(=O)OC(C)(C)C)CC4)cn3)cc2)s1 [Example 246, 4-[Cyclopropyl-(2-{4-[(5-methyl-thiazol-2-ylmethyl)-carbamoyl]-phenyl}-pyrimidine-5-carbonyl)-amino]-piperidine-1-carboxylic acid tert-butyl ester] | 169
7 | CC(C)(C)OC(=O)N1CCC(N(C(=O)c2cnc(-n3ccnc3)nc2)C2CC2)CC1 [Example 247] | 51
8 | C[C@H](OC(=O)N1CCC(N(C(=O)c2cnc(-c3cnco3)cn2)C2CC2)CC1)C(F)(F)F [Example 258, 4-[Cyclopropyl-(5-oxazol-5-yl-pyrazine-2-carbonyl)-amino]-piperidine-1-carboxylic acid (S)-2,2,2-trifluoro-1-methyl-ethyl ester] | 61

Biological target: T2, mutant form of the human GPR119 receptor (Homo sapiens, UniProt Q8TDV5, S329A/T327A)
T2 construct: expressed in transfected cells
T2 sequence (Q8TDV5 with tags, fused parts or gaps T327A/S329A): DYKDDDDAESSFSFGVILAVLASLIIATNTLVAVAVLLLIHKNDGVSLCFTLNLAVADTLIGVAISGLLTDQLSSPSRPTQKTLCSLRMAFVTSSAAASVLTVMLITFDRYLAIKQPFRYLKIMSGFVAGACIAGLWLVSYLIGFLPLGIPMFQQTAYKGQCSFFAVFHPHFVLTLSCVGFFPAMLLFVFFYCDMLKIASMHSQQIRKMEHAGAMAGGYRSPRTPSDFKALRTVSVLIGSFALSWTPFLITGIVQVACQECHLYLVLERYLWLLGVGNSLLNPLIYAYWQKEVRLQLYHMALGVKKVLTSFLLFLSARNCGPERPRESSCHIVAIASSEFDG
Assay: LANCE cAMP-384 assay in HEK293 cells stably expressing a mutant form of the human GPR119 receptor
Type: cell-based
Conditions: mutant human GPR119, LANCE cAMP-384 Kit, 20 min at 37° C., read-out: EC50 (cAMP accumulation)
Procedure: Quantitative detection of cAMP accumulation from cells expressing human GPR119 receptor is achieved using Perkin Elmer's LANCE cAMP-384 Kit (Cat#AD0264) according to the manufacturer's protocol. Briefly, HEK293 cells stably expressing a mutant form of the human GPR119 receptor as assay tool (Methionine 1 replaced with the amino acid sequence […], and T327 & S329 changed to alanines; SEQ ID No. 1) are grown to 50-70% confluency in cell culture media (DMEM, 10% heat inactivated Fetal Bovine Serum, 50 I.U./mL penicillin, 50 μg/mL streptomycin, 10 mM HEPES, 20 μg/mL G418 Sulfate). On the day of the assay, GPR119 stable HEK293 cells are lifted from the tissue culture plate and 1000 cells/well are incubated along with various concentrations of test compounds for 20 min at 37° C. Detection Buffer (50 mM HEPES, 10 mM calcium chloride, 0.35% Triton X-100, 1 mg/mL BSA) containing cAMP-specific antibody is then added to all wells and allowed to equilibrate in the dark for 10 minutes at room temperature. Upon equilibration, Detection Buffer containing europium-labeled cAMP tracer complex is added to all wells and allowed to react for 1 hour at room temperature. After 1 hour, bound europium-labeled cAMP tracer is measured using a Perkin Elmer Envision plate reader. The quantity of cAMP generated in each well is derived from a standard curve. EC50 is determined using nonlinear regression analysis of the cAMP values over a range of agonist concentration (12 points spanning the range from 30 μM to […]).

Row | Compound | EC50 [nM]
9 | Cc1nnnn1-c1ccc(C(=O)N(C2CC2)C2CCN(C(=O)OC(C)C)CC2F)cn1 (single isomer, unassigned) [Example 249] | 146
10 | CC(C)OC(=O)N1CC[C@@H](N(C(=O)c2cnc(-n3cncn3)cn2)C2CC2)[C@@H](F)C1 [Example 248] | 54
11 | Cc1nccn1-c1ncc(C(=O)N(C2CC2)[C@@H]2CCN(C(=O)OC(C)C)C[C@@H]2F)cn1 [Example 250] | 45
12 | Cc1nccn1-c1ncc(C(=O)N(C2CC2)[C@H]2CCN(C(=O)OC(C)C)C[C@H]2F)cn1 [Example 251] | 587
13 | Cc1ncnn1-c1ccc(C(=O)N(C2CC2)[C@@H]2CCN(C(=O)OC(C)C)C[C@@H]2F)cn1 [Example 252] | 193
14 | CC(C)OC(=O)N1CCC(N(C(=O)c2cnc(-n3cncn3)cn2)C2CC2)CC1 [Example 253] | 435
15 | Cc1nccn1-c1cnc(C(=O)N(C2CC2)C2CCN(C(=O)OC(C)C)CC2)cn1 [Example 254] | 518
16 | Cc1ncn(-c2cnc(C(=O)N(C3CC3)C3CCN(C(=O)OC(C)C)CC3)cn2)n1 [Example 255] | 1550
17 | Cc1nccn1-c1ncc(C(=O)N(C2CC2)C2CCN(C(=O)OC(C)C)CC2)cn1 [Example 256] | 265
18 | CC(C)OC(=O)N1CC[C@H](N(C(=O)c2cnc(-n3cncn3)cn2)C2CC2)[C@H](F)C1 [Example 257] | 801
